{
  "source": "patent US7718668B2",
  "about": "“Salts of 6-heterocycle substituted hexahydrophenanthridine derivatives” (Nycomed GmbH, priority 2005, dated 2010)",
  "note": "Where a name gives a salt, the structure may show the parent alone.",
  "data": [
    {"units": {"melting point": "°C"}, "values": [
      {"smiles": "CCOc1cc2c(cc1OC)C(c1cnc(N(C)C)nc1)=N[C@@H]1CC[C@@H](O)C[C@H]21", "note": "[compound 13, (2R,4aR,10bR)-6-(2-Dimethylamino-pyrimidin-5-yl)-9-ethoxy-8-methoxy-1,2,3,4,4a, 10b-hexahydro-phenanthridin-2-ol]", "melting point": 112},
      {"smiles": "CCOc1cc2c(cc1OC)C(c1ccc(=O)n(C)c1)=N[C@@H]1CC[C@@H](O)C[C@H]21", "note": "(as salt: fumarate) [compound 9, 5-((2R,4aR,10bR)-9-Ethoxy-2-hydroxy-8-methoxy-1,2,3,4,4a, 10b-hexahydro-phenanthridin-6-yl)-1-methyl-1H-pyridin-2-one]", "melting point": 156},
      {"smiles": "CCOc1cc2c(cc1OC)C(c1cnc(N(C)C)nc1OC)=N[C@@H]1CC[C@@H](O)C[C@H]21", "note": "[compound 11, (2R,4aR,10bR)-6-(2-Dimethylamino-4-methoxy-pyrimidin-5-yl)-9-ethoxy-8-methoxy-1,2,3,4,4a, 10b-hexahydro-phenanthridin-2-ol]", "melting point": 124},
      {"smiles": "CCOc1cc2c(cc1OC)C(c1ccc(=O)n(C)c1)=N[C@@H]1CC[C@@H](O)C[C@H]21", "note": "(as salt: tartrate) [compound 9, 5-((2R,4aR,10bR)-9-Ethoxy-2-hydroxy-8-methoxy-1,2,3,4,4a, 10b-hexahydro-phenanthridin-6-yl)-1-methyl-1H-pyridin-2-one]", "melting point": 205},
      {"smiles": "CCOc1cc2c(cc1OC)C(c1ccc(OC)nc1OC)=N[C@@H]1CC[C@@H](O)C[C@H]21", "note": "(as salt: hydrochloride) [compound 8, (2R,4aR,10bR)-6-(2,6-Dimethoxy-pyridin-3-yl)-9-ethoxy-8-methoxy-1,2,3,4,4a, 10b-hexahydro-phenanthridin-2-ol]", "melting point": 164},
      {"smiles": "CCOc1cc2c(cc1OC)C(c1ccc(OC)nc1)=N[C@@H]1CC[C@@H](O)C[C@H]21", "note": "(as salt: fumarate) [compound 10, (2R,4aR,10bR)-9-Ethoxy-8-methoxy-6-(6-methoxy-pyridin-3-yl)-1,2,3,4,4a, 10b-hexahydro-phenanthridin-2-ol]", "melting point": 173},
      {"smiles": "CCOc1cc2c(cc1OC)C(c1cnc(OC)cc1OC)=N[C@@H]1CC[C@@H](O)C[C@H]21", "note": "(as salt: fumarate) [compound 12, (2R,4aR,10bR)-6-(4,6-Dimethoxy-pyridin-3-yl)-9-ethoxy-8-methoxy-1,2,3,4,4a, 10b-hexahydro-phenanthridin-2-ol]", "melting point": 194},
      {"smiles": "CCOc1cc2c(cc1OC)C(c1cnc(N(C)C)nc1)=N[C@@H]1CC[C@@H](O)C[C@H]21", "note": "(as salt: tartrate) [compound 13, (2R,4aR,10bR)-6-(2-Dimethylamino-pyrimidin-5-yl)-9-ethoxy-8-methoxy-1,2,3,4,4a, 10b-hexahydro-phenanthridin-2-ol]", "melting point": 206},
      {"smiles": "CCOc1cc2c(cc1OC)C(c1cnc(N(C)C)nc1)=N[C@@H]1CC[C@@H](O)C[C@H]21", "note": "(as salt: fumarate) [compound 13, (2R,4aR,10bR)-6-(2-Dimethylamino-pyrimidin-5-yl)-9-ethoxy-8-methoxy-1,2,3,4,4a, 10b-hexahydro-phenanthridin-2-ol]", "melting point": 210},
      {"smiles": "CCOc1cc2c(cc1OC)C(c1cnc(N(C)C)nc1OC)=N[C@@H]1CC[C@@H](O)C[C@H]21", "note": "(as salt: tartrate) [compound 11, (2R,4aR,10bR)-6-(2-Dimethylamino-4-methoxy-pyrimidin-5-yl)-9-ethoxy-8-methoxy-1,2,3,4,4a, 10b-hexahydro-phenanthridin-2-ol]", "melting point": 249},
      {"smiles": "CCOc1cc2c(cc1OC)C(c1ccc(-n3cccn3)nc1)=N[C@@H]1CC[C@@H](O)C[C@H]21", "note": "(as salt: fumarate) [compound 3, (2R,4aR,10bR)-9-Ethoxy-8-methoxy-6-(6-pyrazol-1-yl-pyridin-3-yl)-1,2,3,4,4a, 10b-hexahydro-phenanthridin-2-ol]", "melting point": 170},
      {"smiles": "CCOc1cc2c(cc1OC)C(c1ccc(OC)nc1OC)=N[C@@H]1CC[C@@H](O)C[C@H]21", "note": "(as salt: tosylate) [compound 8, (2R,4aR,10bR)-6-(2,6-Dimethoxy-pyridin-3-yl)-9-ethoxy-8-methoxy-1,2,3,4,4a, 10b-hexahydro-phenanthridin-2-ol]", "melting point": 218},
      {"smiles": "CCOc1cc2c(cc1OC)C(c1cnc(OC)nc1)=N[C@@H]1CC[C@@H](O)C[C@H]21", "note": "[compound 4, (2R,4aR,10bR)-9-Ethoxy-8-methoxy-6-(2-methoxy-pyrimidin-5-yl)-1,2,3,4,4a, 10b-hexahydro-phenanthridin-2-ol]", "melting point": 124},
      {"smiles": "CCOc1cc2c(cc1OC)C(c1ccc(OC)nc1OC)=N[C@@H]1CC[C@@H](O)C[C@H]21", "note": "(as salt: mesylate) [compound 8, (2R,4aR,10bR)-6-(2,6-Dimethoxy-pyridin-3-yl)-9-ethoxy-8-methoxy-1,2,3,4,4a, 10b-hexahydro-phenanthridin-2-ol]", "melting point": 193},
      {"smiles": "CCOc1cc2c(cc1OC)C(c1ccc(=O)n(C)c1)=N[C@@H]1CC[C@@H](O)C[C@H]21", "note": "[compound 9, 5-((2R,4aR,10bR)-9-Ethoxy-2-hydroxy-8-methoxy-1,2,3,4,4a, 10b-hexahydro-phenanthridin-6-yl)-1-methyl-1H-pyridin-2-one]", "melting point": 147},
      {"smiles": "CCOc1cc2c(cc1OC)C(c1cnc(N(C)C)nc1OC)=N[C@@H]1CC[C@@H](O)C[C@H]21", "note": "(as salt: fumarate) [compound 11, (2R,4aR,10bR)-6-(2-Dimethylamino-4-methoxy-pyrimidin-5-yl)-9-ethoxy-8-methoxy-1,2,3,4,4a, 10b-hexahydro-phenanthridin-2-ol]", "melting point": 123},
      {"smiles": "CCOc1cc2c(cc1OC)C(c1ccc(OC)nc1OC)=N[C@@H]1CC[C@@H](O)C[C@H]21", "note": "(as salt: hydrobromid) [compound 8, (2R,4aR,10bR)-6-(2,6-Dimethoxy-pyridin-3-yl)-9-ethoxy-8-methoxy-1,2,3,4,4a, 10b-hexahydro-phenanthridin-2-ol]", "melting point": 163}
    ]}
  ]
}
